Assay [1] deals with T1, Mcl-1/Bim interaction, recombinant human Mcl-1 (171-327) (Homo sapiens, UniProt Q07820).
T1 construct: made in house
Description: Cell free Mcl-1: Bim Affinity Assay (Mcl-1 HTRF). The format is binding. The settings on record: TR-FRET, 0.1 nM Mcl-1 (171-327), 0.05 nM biotin-Bim (51-76). The method, boiled down:
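Compounds were mixed with the protein and a biotinylated Bim peptide spanning human residues 51-76. Plates were left overnight, then TR-FRET signal was measured. A four-parameter sigmoidal model applied to duplicate competition data gave IC50.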

Assay [2] concerns OPM-2 human multiple myeloma cell line. Put plainly: Cell Viability Assay (OPM-2 10 FBS). The format is cell-based. Conditions: OPM-2 cells, 16 h, CellTiter-Glo. The method, boiled down: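 OPM-2 myeloma cells, 3000/well in medium with 10% FBS, exposed to serially diluted compounds for 16 h at 37° C./5% CO2. Viability read by CellTiter-Glo luminescence; IC50 from 4-parameter logistic fit.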

T1 sequence (Q07820 171-327): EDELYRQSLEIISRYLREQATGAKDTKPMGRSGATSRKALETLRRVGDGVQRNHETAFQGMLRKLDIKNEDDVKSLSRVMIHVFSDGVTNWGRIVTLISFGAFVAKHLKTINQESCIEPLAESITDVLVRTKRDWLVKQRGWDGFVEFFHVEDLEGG

`COCCO[C@H]1/C=C/C[C@H](C)CS(=O)(=O)NC(=O)c2ccc3c(c2)N(C[C@@H]2CC[C@H]21)C[C@@]1(CCCc2cc(Cl)ccc21)CO3` (single isomer, unassigned) [Example 376]: the IC50 came out at 0.403 nM in assay [1] and 222 nM in assay [2].
Regarding `C[C@H]1C/C=C/[C@H](OCCN2CCOCC2)[C@@H]2CC[C@H]2CN2C[C@@]3(CCCc4cc(Cl)ccc43)COc3ccc(cc32)C(=O)NS(=O)(=O)[C@@H]1CC1CC1` (single isomer, unassigned) [Example 386], the IC50 in assay [1] turned out to be 0.63 nM; in assay [2], 273 nM.
Take `COCC[C@@H]1[C@@H](C)C/C=C/[C@H](O)[C@@H]2CC[C@H]2CN2C[C@@]3(CCCc4cc(Cl)ccc43)COc3ccc(cc32)C(=O)NS1(=O)=O` (single isomer, unassigned) [Example 393]: the IC50 in assay [1] is 0.213 nM; in assay [2], 137 nM.
The like results for `COCC[C@@H]1[C@@H](C)C/C=C\[C@H](O)[C@@H]2CC[C@H]2CN2C[C@@]3(CCCc4cc(Cl)ccc43)COc3ccc(cc32)C(=O)NS1(=O)=O` (single isomer, unassigned) [Example 394] were, in that order, 1.26 nM and 1250 nM.
On the same counts, the results for `COCC[C@H]1[C@@H](C)C/C=C/[C@H](OC)[C@@H]2CC[C@H]2CN2C[C@@]3(CCCc4cc(Cl)ccc43)COc3ccc(cc32)C(=O)NS1(=O)=O` (single isomer, unassigned) [Example 396] are 0.384 nM and 186 nM.
Regarding `COCCO[C@H]1/C=C/C[C@H](C)[C@@H](CCOC)S(=O)(=O)NC(=O)c2ccc3c(c2)N(C[C@@H]2CC[C@H]21)C[C@@]1(CCCc2cc(Cl)ccc21)CO3` (single isomer, unassigned) [Example 397], the IC50 worked out at 0.228 nM in assay [1] and 143 nM in assay [2].
On the same counts, the results for `COCC[C@@H]1[C@@H](C)C/C=C/[C@H](OCCN2CCOCC2)[C@@H]2CC[C@H]2CN2C[C@@]3(CCCc4cc(Cl)ccc43)COc3ccc(cc32)C(=O)NS1(=O)=O` (single isomer, unassigned) [Example 398] are 0.233 nM and 88.3 nM.
Consider `COCCOCC[C@@H]1[C@@H](C)C/C=C/[C@H](O)[C@@H]2CC[C@H]2CN2C[C@@]3(CCCc4cc(Cl)ccc43)COc3ccc(cc32)C(=O)NS1(=O)=O` (single isomer, unassigned) [Example 399], for which the IC50 worked out at 0.239 nM in assay [1] and 165 nM in assay [2].
On to `COCCOCC[C@@H]1[C@@H](C)C/C=C/[C@H](O)[C@@H]2CC[C@H]2CN2C[C@@]3(CCCc4cc(Cl)ccc43)COc3ccc(cc32)C(=O)NS1(=O)=O` (single isomer, unassigned) [Example 401], for which the IC50 is 0.531 nM in assay [1] and 452 nM in assay [2].
The like results for `COCCOCC[C@@H]1[C@@H](C)C/C=C/[C@H](O)[C@@H]2CC[C@H]2CN2C[C@@]3(CCCc4cc(Cl)ccc43)COc3ccc(cc32)C(=O)NS1(=O)=O` (single isomer, unassigned) [Example 402] were, in that order, 18.6 nM and 13600 nM.
Consider `C[C@@H]1CC/C=C/[C@H](O[C@@H]2CCOC2=O)[C@@H]2CC[C@H]2CN2C[C@@]3(CCCc4cc(Cl)ccc43)COc3ccc(cc32)C(=O)NS1(=O)=O` (single isomer, unassigned) [Example 414], for which the half-inhibitory concentration (IC50) in assay [1] was determined as 0.188 nM; in assay [2] (Homo sapiens, OPM-2, 16 h) it was 160 nM.
For the molecule `CCC(OC1C=CCCC(C)S(=O)(=O)NC(=O)c2ccc3c(c2)N(CC2CCC21)CC1(CCCc2cc(Cl)ccc21)CO3)C(=O)N(C)C` (single isomer, unassigned) [Example 419], the IC50 in assay [1] came to 0.333 nM; in assay [2] (Homo sapiens, OPM-2, 16 h), 310 nM.
Consider `CC[C@@H](O[C@H]1/C=C/CC[C@@H](C)S(=O)(=O)NC(=O)c2ccc3c(c2)N(C[C@@H]2CC[C@H]21)C[C@@]1(CCCc2cc(Cl)ccc21)CO3)C(=O)N(C)C` (single isomer, unassigned) [Example 421], for which the IC50 came out at 0.686 nM in assay [1] and 674 nM in assay [2].
Take `CCC1CCC=CC(OC2CCOC2=O)C2CCC2CN2CC3(CCCc4cc(Cl)ccc43)COc3ccc(cc32)C(=O)NS1(=O)=O` (single isomer, unassigned) [Example 424]: the IC50 in assay [1] is 0.501 nM; in assay [2] (Homo sapiens, OPM-2, 16 h), 248 nM.
As to `CC[C@@H]1CC/C=C/[C@H](O[C@H]2CCOC2=O)[C@@H]2CC[C@H]2CN2C[C@@]3(CCCc4cc(Cl)ccc43)COc3ccc(cc32)C(=O)NS1(=O)=O` (single isomer, unassigned) [Example 425], the IC50 in assay [1] is 0.4 nM; in assay [2] it was 304 nM.
Consider `C[C@@H]1[C@@H](C)C/C=C/[C@H](O[C@H]2CCOC2=O)[C@@H]2CC[C@H]2CN2C[C@@]3(CCCc4cc(Cl)ccc43)COc3ccc(cc32)C(=O)NS1(=O)=O` (single isomer, unassigned) [Example 427], for which the IC50 is 0.414 nM in assay [1] and 204 nM in assay [2].
As to `C[C@@H]1[C@@H](C)C/C=C/[C@H](O[C@@H]2CCOC2=O)[C@@H]2CC[C@H]2CN2C[C@@]3(CCCc4cc(Cl)ccc43)COc3ccc(cc32)C(=O)NS1(=O)=O` (single isomer, unassigned) [Example 428], the IC50 in assay [1] worked out at 0.333 nM; in assay [2] (Homo sapiens, OPM-2, 16 h), 176 nM.
Turning to `CC(C)C[C@H](O[C@H]1/C=C/C[C@H](C)[C@@H](C)S(=O)(=O)NC(=O)c2ccc3c(c2)N(C[C@@H]2CC[C@H]21)C[C@@]1(CCCc2cc(Cl)ccc21)CO3)C(=O)N(C)C` (single isomer, unassigned) [Example 429], the IC50 in assay [1] came to 4.15 nM; in assay [2], 1320 nM.
On the same counts, the results for `CC[C@H](O[C@H]1/C=C/C[C@H](C)[C@@H](C)S(=O)(=O)NC(=O)c2ccc3c(c2)N(C[C@@H]2CC[C@H]21)C[C@@]1(CCCc2cc(Cl)ccc21)CO3)C(=O)N(C)C` (single isomer, unassigned) [Example 430] are 0.743 nM and 216 nM.
On the same counts, the results for `CC[C@@H](O[C@H]1/C=C/C[C@H](C)[C@@H](C)S(=O)(=O)NC(=O)c2ccc3c(c2)N(C[C@@H]2CC[C@H]21)C[C@@]1(CCCc2cc(Cl)ccc21)CO3)C(=O)N(C)C` (single isomer, unassigned) [Example 431] are 0.512 nM and 140 nM.
On the same counts, the results for `CO[C@H]1/C=C/CC[C@@H](CO)S(=O)(=O)NC(=O)c2ccc3c(c2)N(C[C@@H]2CC[C@H]21)C[C@@]1(CCCc2cc(Cl)ccc21)CO3` (single isomer, unassigned) [Example 446] are 0.493 nM and 419 nM.
For `CO[C@H]1/C=C/CC[C@@H](C(=O)N(C)C)S(=O)(=O)NC(=O)c2ccc3c(c2)N(C[C@@H]2CC[C@H]21)C[C@@]1(CCCc2cc(Cl)ccc21)CO3` (single isomer, unassigned) [Example 452], the IC50 was 0.277 nM in assay [1] and 775 nM in assay [2].
On to `COC1C=CCCC(C(=O)N(C)C)S(=O)(=O)NC(=O)c2ccc3c(c2)N(CC2CCC21)CC1(CCCc2cc(Cl)ccc21)CO3` (single isomer, unassigned) [Example 453], for which the values for the IC50 in assay [1] and in assay [2] were 6.73 nM and 21000 nM, respectively.
On to `COC[C@@H]1[C@@H](C)C/C=C/[C@H](O)[C@@H]2CC[C@H]2CN2C[C@@]3(CCCc4cc(Cl)ccc43)COc3ccc(cc32)C(=O)NS1(=O)=O` (single isomer, unassigned) [Example 455], for which the IC50 in assay [1] was found to be 0.166 nM; in assay [2] (Homo sapiens, OPM-2, 16 h) it was 71.6 nM.
As to `COC[C@H]1[C@@H](C)C/C=C\[C@H](O)[C@@H]2CC[C@H]2CN2C[C@@]3(CCCc4cc(Cl)ccc43)COc3ccc(cc32)C(=O)NS1(=O)=O` (single isomer, unassigned) [Example 457], the concentration for half-maximal inhibition (IC50) in assay [1] stood at 0.263 nM; in assay [2] (Homo sapiens, OPM-2, 16 h), 296 nM.
For `CC[C@H]1[C@H](OC)C/C=C/[C@H](O)[C@@H]2CC[C@H]2CN2C[C@@]3(CCCc4cc(Cl)ccc43)COc3ccc(cc32)C(=O)NS1(=O)=O` (single isomer, unassigned) [Example 459], the results for the IC50 in assay [1] and in assay [2] were 3.37 nM and 3300 nM, respectively.
Turning to `COCC1C(C)CC=CC(OC)C2CCC2CN2CC3(CCCc4cc(Cl)ccc43)COc3ccc(cc32)C(=O)NS1(=O)=O` (single isomer, unassigned) [Example 460], the IC50 in assay [1] turned out to be 0.334 nM; in assay [2] (Homo sapiens, OPM-2, 16 h), 132 nM.
As to `COC[C@H]1[C@@H](C)C/C=C/[C@H](OC)[C@@H]2CC[C@H]2CN2C[C@@]3(CCCc4cc(Cl)ccc43)COc3ccc(cc32)C(=O)NS1(=O)=O` (single isomer, unassigned) [Example 461], the IC50 in assay [1] worked out at 1.79 nM; in assay [2], 775 nM.
In the case of `COCCOC1C=CCC(C)C(COC)S(=O)(=O)NC(=O)c2ccc3c(c2)N(CC2CCC21)CC1(CCCc2cc(Cl)ccc21)CO3` (single isomer, unassigned) [Example 463], the IC50 turned out to be 0.416 nM in assay [1] and 122 nM in assay [2] (Homo sapiens, OPM-2, 16 h).
Take `COCCO[C@H]1/C=C/C[C@H](C)[C@H](COC)S(=O)(=O)NC(=O)c2ccc3c(c2)N(C[C@@H]2CC[C@H]21)C[C@@]1(CCCc2cc(Cl)ccc21)CO3` (single isomer, unassigned) [Example 464]: the IC50 in assay [1] was 1.49 nM; in assay [2] it was 650 nM.
Regarding `CCOC[C@@H]1[C@@H](C)C/C=C/[C@H](O)[C@@H]2CC[C@H]2CN2C[C@@]3(CCCc4cc(Cl)ccc43)COc3ccc(cc32)C(=O)NS1(=O)=O` (single isomer, unassigned) [Example 466], the results for the IC50 in assay [1] and in assay [2] were 0.331 nM and 128 nM, respectively.
On the same counts, the results for `CCOC[C@H]1[C@@H](C)C/C=C/[C@H](O)[C@@H]2CC[C@H]2CN2C[C@@]3(CCCc4cc(Cl)ccc43)COc3ccc(cc32)C(=O)NS1(=O)=O` (single isomer, unassigned) [Example 467] are 1.45 nM and 1510 nM.

What is called IC50 is the concentration needed to halve the response being measured.

Source of the values: patent US12091425B2 (AMGEN INC., priority 2016, dated 2024).
